# According to US20230381159A1 (priority 2020, published 2023):
# Like-named read-outs stand apart in the source and are kept apart here.
# Assays:
# SARS-CoV-S1S2-hACE2 PPI = SARS-CoV-S1S2-hACE2 PPI (Severe acute respiratory syndrome coronavirus, UniProt P59594); assay: biochemical; type: binding, SARS-CoV / human
# SARS-CoV-2-RBD-hACE2 PPI = SARS-CoV-2-RBD-hACE2 PPI (Severe acute respiratory syndrome coronavirus 2, UniProt P0DTC2); assay: biochemical; type: binding, SARS-CoV-2 / human
# [1] = system: SARS-CoV-2 pseudovirus (BacMam) entry into ACE2 expressing host cells (HEK293T); assay: microbe, parasite or virus in culture; type: cell-based, SARS-CoV-2 pseudovirus / human cells; details: Severe acute respiratory syndrome-related coronavirus, HEK-293T, read-out: IC50, inhibition of pseudovirus entry (BacMam)
# [2] = read-out: IC50, SARS-CoV S-hACE2 assay
# [3] = read-out: IC50, SARS-CoV-2 S-ACE2 assay
compound,measurement,setting,value
O=C(Nc1ccc2cc(S(=O)(=O)O)cc(O)c2c1)c1ccc(-c2ccc(C(=O)Nc3ccc4cc(S(=O)(=O)O)cc(O)c4c3)cc2)cc1 [Compound A5],IC50,SARS-CoV-S1S2-hACE2 PPI,0.24 µM
same,IC50,"SARS-CoV-2-RBD-hACE2 PPI; IC50, SARS-CoV-2 S-ACE2 assay",0.16 µM
Cc1cc(-c2ccc(/N=N/c3ccc4c(S(=O)(=O)O)cc(S(=O)(=O)O)c(N)c4c3O)c(C)c2)ccc1/N=N/c1ccc2c(S(=O)(=O)O)cc(S(=O)(=O)O)c(N)c2c1O [Evans blue],IC50,SARS-CoV-S1S2-hACE2 PPI; [2],1.3 µM
Nc1c(/N=N/c2ccc(-c3ccc(/N=N/c4cc(S(=O)(=O)O)c5ccccc5c4N)cc3)cc2)cc(S(=O)(=O)O)c2ccccc12 [Congo red],IC50,[1],20 µM
same,IC50,SARS-CoV-S1S2-hACE2 PPI; [2],3.9 µM
Nc1ccc2cc(S(=O)(=O)O)cc(O)c2c1N=Nc1ccc(-c2ccc(N=Nc3c(N)ccc4cc(S(=O)(=O)O)cc(O)c34)cc2)cc1 [direct violet 1],IC50,SARS-CoV-S1S2-hACE2 PPI; [2],2.6 µM
"O=C(Nc1ccc(-c2ccc(C(=O)Nc3cccc4cc(S(=O)(=O)O)ccc34)cc2)cc1)c1ccc([N+](=O)[O-])cc1 [Compound A2, 5-(4′-(4-Nitrobenzamido)biphenyl-4-ylcarboxamido)naphthalene-2-sulfonic acid]",IC50,[1],5.6 µM
same,IC50,SARS-CoV-S1S2-hACE2 PPI,3.4 µM
CCOc1ccc(N=Nc2ccc(-c3ccc(N=Nc4c(O)ccc5cc(S(=O)(=O)O)cc(S(=O)(=O)O)c45)c(C)c3)cc2C)cc1 [calcomine scarlet 3B],IC50,SARS-CoV-S1S2-hACE2 PPI; [2],9.9 µM
same,IC50,SARS-CoV-2-RBD-hACE2 PPI; [3],4.25 µM
Nc1ccc(N=Nc2ccc(-c3ccc(N=Nc4c(S(=O)(=O)O)cc5cc(S(=O)(=O)O)c(N=Nc6ccccc6)c(O)c5c4N)cc3)cc2)c(N)c1 [chlorazol black],IC50,SARS-CoV-2-RBD-hACE2 PPI; [3],2.57 µM
